Experimental data reported in US20230265098A1, “ALKYNE QUINAZOLINE DERIVATIVES AS INHIBITORS OF ERBB2” (EnLiven Therapeutics, Inc., priority 2020, published 2023).

Tests used:
[1] = molecular target: T1, BaF3 EGFR-D770-N771insSVD (Homo sapiens, UniProt P00533, DUP768-770, cells depend on it); assay: Cell viability assay (CellTiter Glo); assay type: cell-based, mouse; details: 72 hours; 3000 cells per well, 96-well plates; read-out: Cell viability IC50, nM, BaF3 EGFR-D770-N771insSVD
T1 construct: Ba/F3 cell lines were engineered to express human ERBB2 or EGFR kinases, rendering the cells IL-3 independent
How it was run: (§1)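 Murine Ba/F3 cells made IL-3-independent by retroviral human EGFR or ERBB2 were seeded at 3000 or 300 cells per well and exposed to serially diluted compound (DMSO ≤0.1%) for 72 hours at 37° C, 5% CO2. CellTiter Glo luminescence was normalised to DMSO and media-only controls and fitted to a sigmoidal dose-response.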

[2] = molecular target: T2, BaF3 EGFR-H773 V774insNPH (Homo sapiens, UniProt P00533, DUP771-773, cells depend on it); assay: Cell viability assay (CellTiter Glo); assay type: cell-based, mouse; details: 72 hours; 3000 cells per well, 96-well plates; read-out: Cell viability IC50, nM, BaF3 EGFR-H773 V774insNPH
T2 construct: Ba/F3 cell lines were engineered to express human ERBB2 or EGFR kinases, rendering the cells IL-3 independent
How it was run: as §1

[3] = molecular target: T3, BaF3-EGFR-V769 D770insASV (Homo sapiens, UniProt P00533, DUP767-769, cells depend on it); assay: Cell viability assay (CellTiter Glo); assay type: cell-based, mouse; details: 72 hours; 3000 cells per well, 96-well plates; read-out: Cell viability IC50, nM, BaF3-EGFR-V769 D770insASV
T3 construct: Ba/F3 cell lines were engineered to express human ERBB2 or EGFR kinases, rendering the cells IL-3 independent
How it was run: as §1

[4] = molecular target: T4, phosphorylated EGFR (pEGFR) (Homo sapiens, UniProt P00533); assay: Detection of phosphorylated EGFR (pEGFR) in EGF-stimulated A431 cells (AlphaLISA); assay type: cell-based; details: A431 cells (10% FBS), 4 hours with compound, then EGF 30 ng/mL for 10 minutes
T4 construct: endogenous in cells; host or cells: A431
T4 sequence (P00533 25-1210): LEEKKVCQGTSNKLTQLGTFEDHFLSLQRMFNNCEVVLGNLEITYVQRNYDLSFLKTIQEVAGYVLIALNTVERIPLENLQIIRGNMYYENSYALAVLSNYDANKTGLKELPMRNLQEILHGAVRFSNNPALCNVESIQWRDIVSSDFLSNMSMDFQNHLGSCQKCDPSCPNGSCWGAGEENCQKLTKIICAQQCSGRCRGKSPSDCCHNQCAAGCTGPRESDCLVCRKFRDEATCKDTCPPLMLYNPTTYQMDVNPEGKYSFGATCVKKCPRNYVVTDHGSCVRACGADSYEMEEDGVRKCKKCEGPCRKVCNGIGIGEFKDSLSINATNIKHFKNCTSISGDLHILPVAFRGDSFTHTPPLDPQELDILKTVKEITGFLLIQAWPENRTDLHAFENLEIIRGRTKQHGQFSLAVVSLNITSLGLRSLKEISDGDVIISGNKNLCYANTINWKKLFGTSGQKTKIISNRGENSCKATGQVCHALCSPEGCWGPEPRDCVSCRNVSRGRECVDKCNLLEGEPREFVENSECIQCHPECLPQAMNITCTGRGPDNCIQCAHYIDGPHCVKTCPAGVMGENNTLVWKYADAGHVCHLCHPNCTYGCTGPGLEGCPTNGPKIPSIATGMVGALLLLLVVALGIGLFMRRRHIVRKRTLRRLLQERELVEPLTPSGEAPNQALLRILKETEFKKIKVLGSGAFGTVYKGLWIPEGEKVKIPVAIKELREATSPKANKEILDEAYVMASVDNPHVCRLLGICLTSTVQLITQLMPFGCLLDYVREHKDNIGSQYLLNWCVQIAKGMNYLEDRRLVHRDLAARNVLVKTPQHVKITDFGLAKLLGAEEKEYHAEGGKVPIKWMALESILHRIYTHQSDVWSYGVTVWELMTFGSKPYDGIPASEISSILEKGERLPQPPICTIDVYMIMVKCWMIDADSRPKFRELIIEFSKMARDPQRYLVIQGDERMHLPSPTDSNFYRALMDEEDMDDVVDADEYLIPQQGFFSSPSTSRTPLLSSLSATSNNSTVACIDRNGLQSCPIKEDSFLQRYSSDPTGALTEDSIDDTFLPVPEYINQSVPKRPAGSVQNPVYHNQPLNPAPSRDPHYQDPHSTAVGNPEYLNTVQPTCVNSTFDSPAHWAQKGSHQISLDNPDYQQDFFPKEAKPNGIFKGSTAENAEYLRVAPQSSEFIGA

T2 sequence (P00533 with tags, fused parts or gaps DUP771-773): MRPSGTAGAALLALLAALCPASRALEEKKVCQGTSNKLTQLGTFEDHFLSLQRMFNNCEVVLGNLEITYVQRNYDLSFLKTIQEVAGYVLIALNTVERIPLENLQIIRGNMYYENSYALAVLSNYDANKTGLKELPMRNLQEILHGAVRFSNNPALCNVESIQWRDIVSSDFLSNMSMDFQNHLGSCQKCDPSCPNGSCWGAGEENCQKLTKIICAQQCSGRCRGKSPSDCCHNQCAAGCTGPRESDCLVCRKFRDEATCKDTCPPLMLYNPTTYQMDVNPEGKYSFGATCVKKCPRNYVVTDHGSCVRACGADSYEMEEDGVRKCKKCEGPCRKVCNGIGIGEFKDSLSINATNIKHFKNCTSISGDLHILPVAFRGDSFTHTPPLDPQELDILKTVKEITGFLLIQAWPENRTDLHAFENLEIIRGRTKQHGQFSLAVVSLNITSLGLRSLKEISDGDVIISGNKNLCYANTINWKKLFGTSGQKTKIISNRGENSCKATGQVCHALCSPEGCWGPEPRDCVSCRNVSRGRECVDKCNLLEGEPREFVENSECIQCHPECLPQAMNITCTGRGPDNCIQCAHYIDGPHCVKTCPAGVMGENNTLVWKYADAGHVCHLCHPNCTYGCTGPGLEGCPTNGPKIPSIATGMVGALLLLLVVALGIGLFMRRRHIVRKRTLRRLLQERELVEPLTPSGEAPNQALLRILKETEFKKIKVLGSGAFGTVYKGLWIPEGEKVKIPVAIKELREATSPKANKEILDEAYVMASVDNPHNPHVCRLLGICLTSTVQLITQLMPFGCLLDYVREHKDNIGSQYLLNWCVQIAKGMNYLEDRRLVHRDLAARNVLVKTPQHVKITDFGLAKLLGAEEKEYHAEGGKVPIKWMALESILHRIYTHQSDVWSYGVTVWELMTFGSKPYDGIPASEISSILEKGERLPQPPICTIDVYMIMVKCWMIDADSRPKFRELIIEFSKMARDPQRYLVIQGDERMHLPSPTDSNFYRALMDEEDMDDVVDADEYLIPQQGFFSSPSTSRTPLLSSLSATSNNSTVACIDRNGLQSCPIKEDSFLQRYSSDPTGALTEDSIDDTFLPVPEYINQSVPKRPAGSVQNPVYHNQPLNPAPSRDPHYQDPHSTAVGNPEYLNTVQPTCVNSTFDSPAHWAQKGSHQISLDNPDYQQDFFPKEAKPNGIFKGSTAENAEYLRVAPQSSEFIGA
T3 sequence (P00533 with tags, fused parts or gaps DUP767-769): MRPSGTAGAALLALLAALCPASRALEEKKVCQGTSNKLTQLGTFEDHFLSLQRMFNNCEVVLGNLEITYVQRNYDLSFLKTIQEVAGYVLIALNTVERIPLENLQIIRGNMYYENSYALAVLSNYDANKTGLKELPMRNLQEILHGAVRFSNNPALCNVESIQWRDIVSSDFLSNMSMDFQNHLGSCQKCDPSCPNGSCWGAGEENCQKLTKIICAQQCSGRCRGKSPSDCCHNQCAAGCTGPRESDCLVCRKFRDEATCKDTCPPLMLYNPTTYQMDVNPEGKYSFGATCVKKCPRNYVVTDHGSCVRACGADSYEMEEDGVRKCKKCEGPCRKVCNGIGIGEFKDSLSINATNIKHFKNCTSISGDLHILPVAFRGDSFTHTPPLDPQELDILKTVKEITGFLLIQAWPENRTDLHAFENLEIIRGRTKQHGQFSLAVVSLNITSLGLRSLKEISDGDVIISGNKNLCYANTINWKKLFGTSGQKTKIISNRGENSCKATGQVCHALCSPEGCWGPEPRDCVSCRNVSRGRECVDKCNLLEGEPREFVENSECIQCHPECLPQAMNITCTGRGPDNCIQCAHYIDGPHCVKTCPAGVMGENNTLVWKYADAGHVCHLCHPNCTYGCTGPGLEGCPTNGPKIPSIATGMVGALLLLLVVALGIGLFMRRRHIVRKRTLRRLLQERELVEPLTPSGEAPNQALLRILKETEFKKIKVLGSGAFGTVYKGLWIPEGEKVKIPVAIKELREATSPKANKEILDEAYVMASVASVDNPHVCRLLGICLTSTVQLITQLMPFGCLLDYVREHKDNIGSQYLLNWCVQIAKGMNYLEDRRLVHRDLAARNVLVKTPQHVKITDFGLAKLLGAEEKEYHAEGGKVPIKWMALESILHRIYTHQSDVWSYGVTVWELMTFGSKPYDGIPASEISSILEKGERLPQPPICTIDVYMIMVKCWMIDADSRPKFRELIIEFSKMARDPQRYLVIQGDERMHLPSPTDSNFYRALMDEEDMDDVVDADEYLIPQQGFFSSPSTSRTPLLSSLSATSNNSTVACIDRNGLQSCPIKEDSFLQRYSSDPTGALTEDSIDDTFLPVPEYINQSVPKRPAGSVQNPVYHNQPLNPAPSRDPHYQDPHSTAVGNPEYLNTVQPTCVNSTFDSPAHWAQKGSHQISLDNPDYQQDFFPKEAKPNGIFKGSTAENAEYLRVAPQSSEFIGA
T1 sequence (P00533 with tags, fused parts or gaps DUP768-770): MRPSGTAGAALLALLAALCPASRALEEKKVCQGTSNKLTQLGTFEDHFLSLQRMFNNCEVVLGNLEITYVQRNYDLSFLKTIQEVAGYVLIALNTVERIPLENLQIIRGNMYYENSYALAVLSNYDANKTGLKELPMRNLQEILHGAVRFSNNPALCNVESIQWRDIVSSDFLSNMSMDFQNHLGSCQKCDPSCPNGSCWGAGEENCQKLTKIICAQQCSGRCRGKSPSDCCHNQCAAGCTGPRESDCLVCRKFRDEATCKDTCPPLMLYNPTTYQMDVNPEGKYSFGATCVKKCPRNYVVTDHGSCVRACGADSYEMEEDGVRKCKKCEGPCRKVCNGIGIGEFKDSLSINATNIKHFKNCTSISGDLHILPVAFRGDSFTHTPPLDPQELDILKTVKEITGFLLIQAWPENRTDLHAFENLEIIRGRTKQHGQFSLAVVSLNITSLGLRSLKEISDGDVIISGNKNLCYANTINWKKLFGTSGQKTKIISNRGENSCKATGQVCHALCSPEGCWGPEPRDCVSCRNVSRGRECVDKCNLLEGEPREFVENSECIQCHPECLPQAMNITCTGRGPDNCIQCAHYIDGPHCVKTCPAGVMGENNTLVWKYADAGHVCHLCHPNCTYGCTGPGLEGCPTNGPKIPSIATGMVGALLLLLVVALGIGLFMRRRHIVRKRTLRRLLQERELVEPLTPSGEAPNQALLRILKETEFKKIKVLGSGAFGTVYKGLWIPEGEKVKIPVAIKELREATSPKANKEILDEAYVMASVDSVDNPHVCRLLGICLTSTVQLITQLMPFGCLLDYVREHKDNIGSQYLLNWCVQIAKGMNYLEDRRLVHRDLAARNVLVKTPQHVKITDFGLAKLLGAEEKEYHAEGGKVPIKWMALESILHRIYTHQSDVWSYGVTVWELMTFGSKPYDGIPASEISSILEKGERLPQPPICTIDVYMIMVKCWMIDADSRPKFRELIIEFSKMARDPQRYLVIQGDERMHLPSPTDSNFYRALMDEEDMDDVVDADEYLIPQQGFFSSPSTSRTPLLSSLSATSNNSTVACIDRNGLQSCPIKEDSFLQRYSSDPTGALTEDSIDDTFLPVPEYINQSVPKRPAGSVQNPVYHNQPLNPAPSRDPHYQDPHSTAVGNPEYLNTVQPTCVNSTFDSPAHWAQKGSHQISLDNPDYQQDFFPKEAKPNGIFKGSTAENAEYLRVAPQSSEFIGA

Compound | GI50 [1] | GI50 [2] | GI50 [3] | IC50 [4]
CC#CC(=O)Nc1ccc2ncnc(Nc3ccc(Oc4ccn5ncnc5c4)c(C)c3)c2c1 [Compound 1, N-[4-[(3-methyl-4-[[1,2,4]triazolo[1,5-a]pyridin-7-yloxy]phenyl)amino]quinazolin-6-yl]but-2-ynamide] | 775 nM | > 1000 nM | 861 nM | 
CC#CC(=O)Nc1cc2c(Nc3ccc(Oc4ccn5ncnc5c4)c(C)c3)ncnc2cc1OCCN(C)C [Compound 150, N-[7-[2-(dimethylamino)ethoxy]-4-[(3-methyl-4-[[1,2,4]triazolo[1,5-a]pyridin-7-yloxy]phenyl)amino]quinazolin-6-yl]but-2-ynamide] |  |  |  | 233 nM
